Columns and labels:
[1] = tested on: kinases present in the cellular extracts (PBMC); assay: Calcineurin kinetic experiments in PBMC cytosolic proteins in the presence or absence of kinase inhibitors (LC-MS/MS of DP-RII peptide); type: biochemical, human; details: 5 μg PBMC cytosolic proteins from healthy volunteers, FIG. 1; for production of DP-RII peptide vs control: 37° C., up to 120 min, 500 nM okadaic acid, ANOVA test
Experimental: FIG. 1: Calcineurin kinetic experiments were performed in the presence or absence of two different kinase inhibitors. The production of DP-RII peptide was quantified using LC-MS/MS analysis.
PBMCs obtained from either healthy volunteers or transplant patients were resuspended in a buffer containing 50 mM Tris, pH=7.0, 0.1 mM EGTA, 0.05 mM dithiothreitol, 0.1% tween 20, 0.3 mg/mL albumin, 1 mM MnCl2, 1 mM CaCl2 and protease inhibitors. These cellular extracts were sonicated on ice, and centrifuged for 30 minutes at 10.000 g at 4° C. The supernatants corresponding primarily to the cytosolic fractions were recovered and their protein content was determined. These cellular extracts can be stored at −80° C. for later measurement of CN activity.
One to 5 μg of proteins obtained from PBMC, prepared as described above, were used for measuring calcineurin activity in a reaction mixture containing 500 nM okadaic acid, 1 mg/L internal standard, 20 μM H89, 8 mg/L phosphorylated RII peptide and 0.03 units calmodulin in 15 μL 50 mM Tris-HCl, pH=7.0. Enzymatic reaction was carried out at 37° C. for 30 min and then, the reaction tubes were cooled on ice and the enzymatic reaction was stopped by addition of 15 μL of a solution of 5% trichloroacetic acid. After centrifugation for 5 minutes at 12.000 g at 4° C., supernatants were transferred to […] into 1.5 mL glass autoinjector vials and kept at 4° C. in autosampler before injection. […]
The inventors assessed the kinetics of calcineurin in the presence or not of 2 different kinase inhibitors: H89, an unspecific inhibitor and Rp-adenosine 3′,5′-cyclic monophosphorothioate, a specific inhibitor of PKA.
A first set of experiments was performed using 5 μg of PBMC cytosolic proteins issued from healthy volunteers. […] The enzymatic reactions were stopped at the indicated time points (up to 120 min) and peptide amounts were quantified by LC-MS/MS.

[2] = molecular target: protein phosphatase 1 (PP-1); details: cited from earlier work
[3] = molecular target: protein phosphatase 2A (PP-2A); details: cited from earlier work
[4] = molecular target: protein phosphatase 2B (PP-2B); details: cited from earlier work

SMILES | production of DP-RII peptide vs control [1] | IC50 [2] [nM] | IC50 [3] [nM] | IC50 [4] [µM] | inhibition obtained vs that obtained with the PKA specific inhibitor ([1]; p=0.0163)
Nc1ncnc2c1ncn2[C@@H]1O[C@@H]2COP(O)(=S)O[C@H]2[C@H]1O (stereo partly drawn) [PKA specific inhibitor, Rp-adenosine 3′,5′-cyclic monophosphorothioate] | significantly higher | – | – | – | –
C=C1[C@@H](O)[C@@H]2O[C@]3(CC[C@H](/C=C/[C@@H](C)[C@@H]4CC(C)=C[C@@]5(O[C@H](C[C@@](C)(O)C(=O)O)CC[C@H]5O)O4)O3)CC[C@H]2O[C@@H]1[C@@H](O)C[C@H](C)[C@H]1O[C@@]2(CCCCO2)CC[C@H]1C [Okadaic acid, 9,10-Deepithio-9,10-didehydroacanthifolicin] | – | 20 to 100 | 0.1 to 1 | > 5 | –
O=S(=O)(NCCNC/C=C/c1ccc(Br)cc1)c1cccc2cnccc12 [H89] | significantly higher | – | – | – | significantly higher
